Test results reported in patent US11753409B2, “Crystalline salts of a B-RAF kinase inhibitor” (Xynomic Pharmaceuticals, Inc., priority 2017, dated 2023).
“Also recorded” adds a separate entry of the source.

Legend:
Type in all cases: physicochemical
[1] = DVS isotherm of Form A (hygroscopicity)
Procedure: DVS was measured via a SMS (Surface Measurement Systems) DVS Intrinsic. The relative humidity at 25° C. was calibrated against the deliquescence point of LiCl, Mg(NO3)2 and KCl.
To investigate the solid form stability as a function of humidity, a DVS isotherm plot of Form A of N-(3-(5-((1-ethylpiperidin-4-yl)(methyl)amino)-3-(pyrimidin-5-yl)-1H-pyrrolo[3,2-b]pyridin-1-yl)-2,4-difluorophenyl)propane-1-sulfonamide monosuccinate salt was collected at 25° C. between 0 and 95% RH.

[2] = Equilibrium solubility of Form A in water
Procedure: Equilibrium solubility of Form A in water was measured at room temperature. The solid was suspended into H2O (˜800 rpm) at rt. After 24 h., the suspension was centrifuged (10000 rpm, 5 min) followed by filtration (0.45 μm PTFE membrane). The supernatant (first few drops were discarded) was analyzed by HPLC and the pH was measured. The residual solid was analyzed by XRPD.

[3] = Solid state stability evaluation
Procedure: Samples of Form A of N-(3-(5-((1-ethylpiperidin-4-yl)(methyl)amino)-3-(pyrimidin-5-yl)-1H-pyrrolo[3,2-b]pyridin-1-yl)-2,4-difluorophenyl)propane-1-sulfonamide monosuccinate salt were stored under at 80° C. for one day, at 25° C. under 60% RH and at 40° C. under 75% RH for one week.

[4] = Heating to 170° C. and cooling to room temperature; conditions: heated to 170° C., cooled to room temperature
Procedure: Further XRPD, TGA, DSC and ^1H NMR analyses were performed after heating succinate Form A to 170° C. and then cooling to room temperature.

[5] = 25 ° C., 60% RH/1 week (second condition column)
[6] = 25 ° C., 60% RH/1 week (third condition column)

## CCCS(=O)(=O)Nc1ccc(F)c(-n2cc(-c3cncnc3)c3nc(N(C)C4CCN(CC)CC4)ccc32)c1F.O=C(O)CCC(=O)O [Monosuccinate Salt, N-(3-(5-((1-Ethylpiperidin-4-yl)(methyl)amino)-3-(pyrimidin-5-yl)-1H-pyrrolo[3,2-b]pyridin-1-yl)-2,4-difluorophenyl)propane-1-sulfonamide monosuccinate salt]
[1]; 25° C./80% RH
  Water uptake (DVS): 0.14%
[1]; DVS at 25° C., 0 to 95% RH, listed as Form A, monosuccinate salt
  Hygroscopicity: non-hygroscopic; also recorded: low hygroscopicity
[1]; listed as Form A, monosuccinate salt
  Form change after DVS testing (XRPD): did not result in any form change; also recorded: does not change form
[2]; rt, 24 h, listed as Form A, monosuccinate salt
  Form change during equilibrium solubility testing (XRPD): no form change; also recorded: does not change
[2]; thermodynamic from solid, room temperature, HPLC
  solubility thermodynamic at 24 h: 14.3 mg/mL
[3]; [5]
  Form Change: No
  Purity (% of Initial): 100.0 % of Initial
[3]; [6]
  Form Change: No
  Purity (% of Initial): 100.1 % of Initial
[3]; 80% C/1 day
  Form Change: No
  Purity (% of Initial): 99.9 % of Initial
[3]; any of the storage conditions
  Solid state stability, form change or HPLC purity decrease: No form change or HPLC purity decrease were observed
[4]
  Crystalline form after heating (XRPD): still succinate Type A
